Source: ChEMBL document CHEMBL3217546, “The synthesis and receptor binding affinities of DDD-016, a novel, potential, atypical antipsychotic” (Medchemcomm, 2012)
Calls of active or inactive are those of the source. The calls are words filed in the database; no cut-off is given here.

Experiments:
[1] = biological target: 5-hydroxytryptamine receptor 5A (Homo sapiens, UniProt P47898)
Description: Binding affinity to serotonin 5-HT5A receptor (unknown origin) by PDSP assay

[2] = biological target: Alpha-1B adrenergic receptor (Homo sapiens, UniProt P35368)
Description: Binding affinity to adrenergic alpha1B receptor (unknown origin) by PDSP assay

[3] = biological target: D(1B) dopamine receptor (Homo sapiens, UniProt P21918)
[4] = biological target: 5-hydroxytryptamine receptor 1B (Homo sapiens, UniProt P28222)
Description: Binding affinity to serotonin 5-HT1B receptor (unknown origin) by PDSP assay

[5] = biological target: 5-hydroxytryptamine receptor 1E (Homo sapiens, UniProt P28566)
Description: Binding affinity to serotonin 5-HT1E receptor (unknown origin) by PDSP assay

[6] = biological target: 5-hydroxytryptamine receptor 3A (Homo sapiens, UniProt P46098)
Description: Binding affinity to serotonin 5-HT3 receptor (unknown origin) by PDSP assay

[7] = test system: Rattus norvegicus; experiment: Toxicity in po dosed rat assessed as abnormal metabolic changes after 2 weeks relative to control; format: organism-based; settings: in vivo, 336 h
[8] = biological target: 5-hydroxytryptamine receptor 1A (Homo sapiens, UniProt P08908)
Description: Binding affinity to serotonin 5-HT1A receptor (unknown origin) by PDSP assay

[9] = biological target: 5-hydroxytryptamine receptor 2B (Homo sapiens, UniProt P41595); experiment: Binding affinity to serotonin 5-HT2B receptor (unknown origin) by PDSP assay
[10] = biological target: Alpha-1A adrenergic receptor (Homo sapiens, UniProt P35348)
Description: Binding affinity to adrenergic alpha1A receptor (unknown origin) by PDSP assay

[11] = biological target: 5-hydroxytryptamine receptor 4 (Homo sapiens, UniProt Q13639); experiment: Binding affinity to serotonin 5-HT4 receptor (unknown origin) by PDSP assay
[12] = biological target: Muscarinic acetylcholine receptor M4 (Homo sapiens, UniProt P08173)
Description: Binding affinity to M4 receptor (unknown origin) by PDSP assay

[13] = biological target: 5-hydroxytryptamine receptor 6 (Homo sapiens, UniProt P50406)
Description: Binding affinity to serotonin 5-HT6 receptor (unknown origin) by PDSP assay

[14] = test system: Rattus norvegicus; experiment: Inhibition of pre-pulse in ip dosed rat; format: functional, organism-based
[15] = biological target: Histamine H2 receptor (Homo sapiens, UniProt P25021); experiment: Binding affinity to H2 histamine receptor (unknown origin) by PDSP assay
[16] = biological target: T1, D(2) dopamine receptor (Homo sapiens, UniProt P14416); experiment: Agonist activity at dopamine D2 receptor (unknown origin) relative to serotonin; settings: concentration not given here
[17] = biological target: Alpha-2A adrenergic receptor (Homo sapiens, UniProt P08913)
Description: Binding affinity to adrenergic alpha2A receptor (unknown origin) by PDSP assay

[18] = biological target: Muscarinic acetylcholine receptor M5 (Homo sapiens, UniProt P08912)
Description: Binding affinity to M5 receptor (unknown origin) by PDSP assay

[19] = biological target: Alpha-1D adrenergic receptor (Homo sapiens, UniProt P25100); experiment: Binding affinity to adrenergic alpha1D receptor (unknown origin) by PDSP assay
[20] = biological target: Muscarinic acetylcholine receptor M1 (Homo sapiens, UniProt P11229)
Description: Binding affinity to M1 receptor (unknown origin) by PDSP assay

[21] = test system: Rattus norvegicus; experiment: Toxicity in po dosed rat assessed as weight gain after 2 weeks relative to control; format: organism-based; settings: in vivo, 336 h
[22] = biological target: T2, 5-hydroxytryptamine receptor 2A (Homo sapiens, UniProt P28223)
Description: Binding affinity to serotonin 5-HT2A receptor (unknown origin) by PDSP assay

[23] = biological target: T1, D(2) dopamine receptor; experiment: Antagonist activity at dopamine D2 receptor (unknown origin) relative to ketanserin; settings: concentration not given here
[24] = biological target: 5-hydroxytryptamine receptor 2C (Homo sapiens, UniProt P28335)
Description: Binding affinity to serotonin 5-HT2C receptor (unknown origin) by PDSP assay

[25] = biological target: D(1A) dopamine receptor (Homo sapiens, UniProt P21728)
Description: Binding affinity to dopamine D1 receptor (unknown origin) by PDSP assay

[26] = biological target: Alpha-2C adrenergic receptor (Homo sapiens, UniProt P18825)
Description: Binding affinity to adrenergic alpha2C receptor (unknown origin) by PDSP assay

[27] = test system: Rattus norvegicus; experiment: Toxicity in po dosed rat assessed as change in renal parameter after 2 weeks relative to control; format: organism-based; settings: in vivo, 336 h
[28] = biological target: T2, 5-hydroxytryptamine receptor 2A; experiment: Agonist activity at 5-HT2A receptor (unknown origin) relative to serotonin; settings: concentration not given here
[29] = biological target: T1, D(2) dopamine receptor
Description: Binding affinity to dopamine D2 receptor (unknown origin) by PDSP assay

[30] = biological target: T2, 5-hydroxytryptamine receptor 2A; experiment: Antagonist activity at 5-HT2A receptor (unknown origin) relative to ketanserin; settings: concentration not given here
[31] = biological target: D(3) dopamine receptor (Homo sapiens, UniProt P35462)
Description: Binding affinity to dopamine D3 receptor (unknown origin) by PDSP assay

[32] = biological target: 5-hydroxytryptamine receptor 7 (Homo sapiens, UniProt P34969)
Description: Binding affinity to serotonin 5-HT7 receptor (unknown origin) by PDSP assay

[33] = biological target: Muscarinic acetylcholine receptor M2 (Homo sapiens, UniProt P08172)
Description: Binding affinity to M2 receptor (unknown origin) by PDSP assay

[34] = test system: Rattus norvegicus; experiment: Toxicity in po dosed rat assessed as elevation in liver enzyme level after 2 weeks relative to control; format: organism-based; settings: in vivo, 336 h
[35] = biological target: 5-hydroxytryptamine receptor 1D (Homo sapiens, UniProt P28221)
Description: Binding affinity to serotonin 5-HT1D receptor (unknown origin) by PDSP assay

[36] = biological target: Muscarinic acetylcholine receptor M3 (Homo sapiens, UniProt P20309)
Description: Binding affinity to M3 receptor (unknown origin) by PDSP assay

T1 sequence (P14416 whole entry): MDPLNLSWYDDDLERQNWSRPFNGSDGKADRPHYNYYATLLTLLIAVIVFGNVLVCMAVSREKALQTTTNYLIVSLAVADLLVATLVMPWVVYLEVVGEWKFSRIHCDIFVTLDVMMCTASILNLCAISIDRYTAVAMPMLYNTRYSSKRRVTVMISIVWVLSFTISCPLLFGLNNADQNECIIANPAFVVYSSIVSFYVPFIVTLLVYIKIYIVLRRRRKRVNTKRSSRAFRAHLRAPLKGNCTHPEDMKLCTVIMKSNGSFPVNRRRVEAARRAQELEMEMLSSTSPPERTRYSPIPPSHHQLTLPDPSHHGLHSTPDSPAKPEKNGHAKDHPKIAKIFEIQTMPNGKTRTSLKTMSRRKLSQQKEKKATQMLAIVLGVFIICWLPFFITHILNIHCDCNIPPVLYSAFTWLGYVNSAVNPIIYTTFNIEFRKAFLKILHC
T2 sequence (P28223 whole entry): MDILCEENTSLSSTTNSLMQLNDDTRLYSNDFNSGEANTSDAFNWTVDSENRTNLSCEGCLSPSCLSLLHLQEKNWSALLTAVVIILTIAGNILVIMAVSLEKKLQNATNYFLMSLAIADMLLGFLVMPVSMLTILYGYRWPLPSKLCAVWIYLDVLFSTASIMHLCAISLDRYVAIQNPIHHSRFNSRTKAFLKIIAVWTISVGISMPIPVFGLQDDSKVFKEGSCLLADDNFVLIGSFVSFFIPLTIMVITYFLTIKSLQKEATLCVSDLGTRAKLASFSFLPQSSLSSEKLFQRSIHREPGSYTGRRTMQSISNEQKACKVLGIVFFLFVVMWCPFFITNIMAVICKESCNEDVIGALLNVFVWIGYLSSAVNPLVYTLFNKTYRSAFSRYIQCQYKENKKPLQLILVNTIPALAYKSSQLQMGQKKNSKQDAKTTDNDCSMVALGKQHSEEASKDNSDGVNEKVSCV
Chain of 5-hydroxytryptamine receptor 5A (P47898 whole entry): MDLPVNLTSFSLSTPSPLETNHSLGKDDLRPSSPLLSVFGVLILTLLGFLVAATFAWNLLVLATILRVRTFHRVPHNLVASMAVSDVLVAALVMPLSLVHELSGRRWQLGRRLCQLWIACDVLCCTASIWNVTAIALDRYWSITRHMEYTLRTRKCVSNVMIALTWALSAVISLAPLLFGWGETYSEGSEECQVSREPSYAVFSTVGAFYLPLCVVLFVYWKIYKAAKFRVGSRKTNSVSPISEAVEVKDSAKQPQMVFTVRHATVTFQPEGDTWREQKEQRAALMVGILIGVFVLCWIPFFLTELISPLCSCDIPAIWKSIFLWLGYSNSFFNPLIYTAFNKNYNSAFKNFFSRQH
Chain of 5-hydroxytryptamine receptor 1B (P28222 whole entry): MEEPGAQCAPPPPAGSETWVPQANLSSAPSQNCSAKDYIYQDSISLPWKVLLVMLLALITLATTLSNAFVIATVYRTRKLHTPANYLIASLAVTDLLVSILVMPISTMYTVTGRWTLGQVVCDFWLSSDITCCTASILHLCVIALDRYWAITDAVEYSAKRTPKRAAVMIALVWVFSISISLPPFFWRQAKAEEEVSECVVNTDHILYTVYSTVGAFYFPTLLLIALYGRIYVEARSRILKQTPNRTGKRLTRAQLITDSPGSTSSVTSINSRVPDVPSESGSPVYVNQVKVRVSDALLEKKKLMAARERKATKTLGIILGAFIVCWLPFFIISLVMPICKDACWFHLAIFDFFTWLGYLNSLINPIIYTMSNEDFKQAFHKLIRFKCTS
Chain of 5-hydroxytryptamine receptor 1E (P28566 whole entry): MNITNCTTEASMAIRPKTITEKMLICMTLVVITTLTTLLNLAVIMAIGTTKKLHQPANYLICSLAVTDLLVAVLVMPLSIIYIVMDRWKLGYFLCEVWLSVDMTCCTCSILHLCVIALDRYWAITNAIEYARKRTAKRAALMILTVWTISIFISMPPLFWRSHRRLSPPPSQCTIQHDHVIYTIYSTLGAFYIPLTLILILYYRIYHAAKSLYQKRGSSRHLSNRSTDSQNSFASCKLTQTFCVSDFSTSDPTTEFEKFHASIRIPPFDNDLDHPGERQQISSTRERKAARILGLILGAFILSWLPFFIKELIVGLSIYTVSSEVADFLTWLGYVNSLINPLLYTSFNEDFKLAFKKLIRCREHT
Chain of 5-hydroxytryptamine receptor 3A (P46098 whole entry): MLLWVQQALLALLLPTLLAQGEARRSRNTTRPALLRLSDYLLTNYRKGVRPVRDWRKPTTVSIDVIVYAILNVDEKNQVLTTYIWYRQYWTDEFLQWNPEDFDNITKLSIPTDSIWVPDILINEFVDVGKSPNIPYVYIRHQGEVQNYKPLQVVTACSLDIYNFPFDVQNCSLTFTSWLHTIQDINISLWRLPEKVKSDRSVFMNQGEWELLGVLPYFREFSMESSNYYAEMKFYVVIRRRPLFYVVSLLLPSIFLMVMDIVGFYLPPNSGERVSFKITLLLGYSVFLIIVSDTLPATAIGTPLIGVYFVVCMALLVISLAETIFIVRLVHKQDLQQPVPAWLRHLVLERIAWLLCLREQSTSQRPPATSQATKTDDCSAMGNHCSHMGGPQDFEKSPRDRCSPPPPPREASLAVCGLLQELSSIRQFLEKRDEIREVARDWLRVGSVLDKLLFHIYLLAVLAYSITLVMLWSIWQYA
Chain of Alpha-1B adrenergic receptor (P35368 whole entry): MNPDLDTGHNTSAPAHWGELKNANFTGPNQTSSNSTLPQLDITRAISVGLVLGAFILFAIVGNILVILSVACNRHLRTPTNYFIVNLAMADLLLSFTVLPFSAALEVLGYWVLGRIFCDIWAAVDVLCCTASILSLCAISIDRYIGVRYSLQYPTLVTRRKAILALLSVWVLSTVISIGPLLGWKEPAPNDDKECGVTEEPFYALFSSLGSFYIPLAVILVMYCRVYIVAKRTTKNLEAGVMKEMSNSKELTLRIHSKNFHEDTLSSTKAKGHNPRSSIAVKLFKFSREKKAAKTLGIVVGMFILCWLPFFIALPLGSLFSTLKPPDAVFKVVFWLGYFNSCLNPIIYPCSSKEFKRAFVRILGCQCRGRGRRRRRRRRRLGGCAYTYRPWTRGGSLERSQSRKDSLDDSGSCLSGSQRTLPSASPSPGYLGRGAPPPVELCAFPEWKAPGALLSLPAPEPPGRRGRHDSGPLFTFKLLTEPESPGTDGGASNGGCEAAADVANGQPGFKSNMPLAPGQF
Chain of D(1B) dopamine receptor (P21918 whole entry): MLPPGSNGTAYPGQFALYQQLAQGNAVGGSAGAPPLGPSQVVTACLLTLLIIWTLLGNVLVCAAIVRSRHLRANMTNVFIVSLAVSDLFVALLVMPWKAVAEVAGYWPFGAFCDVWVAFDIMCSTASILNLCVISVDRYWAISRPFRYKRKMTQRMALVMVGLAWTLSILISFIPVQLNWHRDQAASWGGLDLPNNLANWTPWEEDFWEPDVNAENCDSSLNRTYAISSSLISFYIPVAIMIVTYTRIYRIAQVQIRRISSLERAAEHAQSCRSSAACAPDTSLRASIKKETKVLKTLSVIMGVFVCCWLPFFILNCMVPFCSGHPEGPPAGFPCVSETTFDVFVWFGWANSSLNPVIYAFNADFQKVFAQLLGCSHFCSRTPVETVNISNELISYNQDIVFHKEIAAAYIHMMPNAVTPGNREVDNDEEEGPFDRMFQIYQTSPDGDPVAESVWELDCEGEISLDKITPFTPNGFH
Chain of Muscarinic acetylcholine receptor M5 (P08912 whole entry): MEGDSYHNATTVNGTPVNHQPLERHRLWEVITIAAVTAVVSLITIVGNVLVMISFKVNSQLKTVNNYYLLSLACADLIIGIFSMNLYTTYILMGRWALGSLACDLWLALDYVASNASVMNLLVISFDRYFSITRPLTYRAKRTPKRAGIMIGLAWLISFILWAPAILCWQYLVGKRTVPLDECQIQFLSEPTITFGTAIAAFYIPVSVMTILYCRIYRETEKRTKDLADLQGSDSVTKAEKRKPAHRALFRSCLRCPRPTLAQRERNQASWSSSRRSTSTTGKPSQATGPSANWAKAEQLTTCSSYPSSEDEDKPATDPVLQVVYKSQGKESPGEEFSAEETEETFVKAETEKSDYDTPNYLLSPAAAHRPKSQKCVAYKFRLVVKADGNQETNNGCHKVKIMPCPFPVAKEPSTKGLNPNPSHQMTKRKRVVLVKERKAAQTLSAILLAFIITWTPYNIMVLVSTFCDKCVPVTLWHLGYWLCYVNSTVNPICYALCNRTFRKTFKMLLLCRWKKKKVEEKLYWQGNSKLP
Chain of 5-hydroxytryptamine receptor 1A (P08908 whole entry): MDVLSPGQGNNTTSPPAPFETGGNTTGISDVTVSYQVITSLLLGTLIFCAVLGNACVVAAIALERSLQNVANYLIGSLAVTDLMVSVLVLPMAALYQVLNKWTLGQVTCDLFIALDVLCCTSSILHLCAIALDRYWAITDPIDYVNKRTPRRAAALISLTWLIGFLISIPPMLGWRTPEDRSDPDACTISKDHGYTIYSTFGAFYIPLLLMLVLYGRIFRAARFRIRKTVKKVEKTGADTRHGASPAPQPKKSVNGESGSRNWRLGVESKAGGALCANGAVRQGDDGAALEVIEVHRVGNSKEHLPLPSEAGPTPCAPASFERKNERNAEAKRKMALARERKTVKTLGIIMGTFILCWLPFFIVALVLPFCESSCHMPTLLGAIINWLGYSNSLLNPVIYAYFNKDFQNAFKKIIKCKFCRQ
Chain of 5-hydroxytryptamine receptor 4 (Q13639 whole entry): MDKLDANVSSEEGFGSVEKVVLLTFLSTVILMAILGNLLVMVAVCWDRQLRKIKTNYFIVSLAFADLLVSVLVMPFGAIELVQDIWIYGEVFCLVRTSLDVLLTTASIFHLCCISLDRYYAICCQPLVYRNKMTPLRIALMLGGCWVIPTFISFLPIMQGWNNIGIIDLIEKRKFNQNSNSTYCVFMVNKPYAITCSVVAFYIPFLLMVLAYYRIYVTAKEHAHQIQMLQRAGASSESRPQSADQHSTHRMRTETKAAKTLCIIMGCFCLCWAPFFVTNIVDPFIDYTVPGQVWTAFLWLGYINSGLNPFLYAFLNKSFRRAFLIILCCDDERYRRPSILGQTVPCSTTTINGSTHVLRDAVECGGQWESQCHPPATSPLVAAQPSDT

## CN1CCN(C2=Nc3cc(Cl)ccc3Nc3ccccc32)CC1 [CLOZAPINE]
[1]
  Ki: > 1000 nM

## OCCOCCN1CCN(C2=Nc3ccccc3Sc3ccccc32)CC1 [QUETIAPINE]
[2]
  Ki: 100 nM
[3]
  Ki: > 1000 nM
[4]
  Ki: > 1000 nM
[1]
  Ki: > 1000 nM
[5]
  Ki: > 1000 nM

## Cc1cc2c(s1)Nc1ccccc1N=C2N1CCN(C)CC1 [OLANZAPINE]
[3]
  Ki: 100 nM
[6]
  Ki: 1000 nM
[1]
  Ki: > 1000 nM

## CN1CCC2C(C1)c1cccc3c1N2c1ccccc1CS3 (stereo not drawn)
[7]
  Activity: Non-toxic
[8]
  Ki: 39.8 nM
[9]
  Ki: 5.01 nM
[10]
  Ki: 501 nM
[11]
  Ki: > 1000 nM
[12]
  Ki: > 1000 nM
[2]
  Ki: > 1000 nM
[13]
  Ki: 15.8 nM
[14]
  inhibition: Active
[15]
  Ki: 79.4 nM
[16]
  inhibition: 0%
[17]
  Ki: 63.1 nM
[18]
  Ki: 794 nM
[19]
  Ki: 794 nM
[20]
  Ki: > 1000 nM
[21]
  Activity: Non-toxic
[22]
  Ki: 2 nM
[23]
  inhibition: 95%
[24]
  Ki: 7.94 nM
[25]
  Ki: 25.1 nM
[6]
  Ki: 631 nM
[26]
  Ki: 31.6 nM
[4]
  Ki: 316 nM
[27]
  Activity: Non-toxic
[28]
  inhibition: 4%
[29]
  Ki: 126 nM
[30]
  inhibition: 101%
[31]
  Ki: 31.6 nM
[32]
  Ki: 79.4 nM
[33]
  Ki: > 1000 nM
[5]
  Ki: 2510 nM
[34]
  Activity: Non-toxic
[35]
  Ki: 63.1 nM
[36]
  Ki: > 1000 nM
